This test relates to peripheral blood mononuclear cell (PBMC). Put plainly: Cell chromatography retention time of drug-treated PBMC on polystyrene column (150 mm×10 mm), detection at 500 nm. The format is cell-based. As to conditions: PBMC treated with 10 μg/ml for 2 minutes; PBS pH 7.4, 1 ml/min; un-treated control about 7.7 minutes; FIG. 3. How it is done: In this example, the column used for analysis of the interaction between small molecule and cell has an inner diameter of 10 mm, a length of 150 mm and a volume of 11.8 ml (150 mm×10 mm). This column was packed with resin particles (size: 1 or 2 millimeter; material: polystyrene) and was washed first and thereafter, filled with a phosphate buffered saline (PBS).
The method is similar as described as above. Whole Blood was separated first by centrifugation using dextran cell separation medium (Ficoll) to yield peripheral blood mononuclear cell (PBMC). Then PBMC was diluted with phosphate buffered saline (PBS) into a cell suspension at concentration of 1×10^6 cells/ml.
Lectin: treated PBMC by 10 μg/ml lectin for two minutes;
Shikonin: treated PBMC by 10 μg/ml shikonin for two minutes.
The cell suspension was added with lectin or shikonin at a concentration of 10 μg/ml (lectin treated group or shikonin treated group). After reacting for 2 minutes, drug-treaded group or un-treated group (control) was loaded on the upper frontier of the column (150 mm×10 mm) respectively, and after adding PBS (pH 7.4) to a level of a pre-determined height, the column was eluted with PBS (pH 7.4) at a steady flow rate of 1 ml/min provided under the action of a pump and integrated with a spectrophotometer, which eluted cells were continuously detected with a wavelength of 500 nm. […]

The values below come from patent US20090208981A1, “Method for Analysis of Interaction Between Small Molecules and Cells and Apparatus thereof” (priority 2005, published 2009).

On to `CC(C)=CC[C@@H](O)C1=CC(=O)c2c(O)ccc(O)c2C1=O` [shikonin], for which the “retention time of treated cell in the column” value is 6.5 min.
